The test has as its system Plasmodium falciparum. Kind of test: GSK_TCMDC: Inhibition of Plasmodium falciparum 3D7 in whole erythrocytes, using parasite LDH activity as an index of growth. In kind it is functional, organism-based. As to conditions: Plasmodium falciparum, 3D7.

Our source for the XC50 values is ChEMBL document CHEMBL1157539, “Thousands of chemical starting points for antimalarial lead identification” (Nature, 2010).

The structures appear in SMILES notation.

`O=C(NCCc1cccc(Cl)c1Cl)c1cnc(N2CCN(c3ccncc3)CC2)c(Cl)c1` yielded an XC50 of 702 nM.

Regarding `CNC(=O)c1ccccc1Nc1nc(Nc2ccc(N3CCN(C)CC3)nc2)ncc1C`, the XC50 came out at 1140 nM.

`O=C(/C=C/c1ccc(Cl)cc1)NCCCCCN1CCCC(C(=O)Nc2ccc(Cl)c(Cl)c2)C1` (stereo not given) yielded an XC50 of 833 nM.

`COc1cccc2c(NCc3ccccc3)nc(NCCCN3CCCCC3C)nc12` (stereo not given) gave an XC50 of 911 nM.

`Cc1ccc(Cn2ncc(NC3CCNCC3)c(Cl)c2=O)cc1NC(=O)Nc1ccc(-c2ccccc2)cc1` showed an XC50 of 657 nM.

In turn, `COc1ccc(CNCCCCCCNCCc2ccc(Cl)cc2)cc1OC` showed an XC50 of 1390 nM.

Compound `c1cc(CN2CCN(CCN3CCOCC3)CC2)cc(-c2ccc(-c3nc4ccccc4[nH]3)cc2)c1` yielded an XC50 of 131 nM.

For `OC(CNc1ccnc(Nc2cccc(CCN3CCOCC3)c2)n1)c1ccccc1` (stereo not given), the XC50 was 594 nM.

Take `CCn1c(-c2nonc2N)nc2c(-c3cccc(NC(=O)Nc4ccc(C(F)(F)F)cc4)c3)ncc(OCCCN)c21`: the XC50 stood at 1050 nM.

Regarding `Cc1ccc(NC(=O)c2cc(Br)cc(N3CCCN(C)CC3)c2)cc1F`, the XC50 was 1340 nM.

With `CC(=O)Nc1nc(C(=O)Nc2cccc(-c3ccc(-c4nc5cccc(C)c5[nH]4)s3)c2)cs1`, the XC50 was found to be 222 nM.

Regarding `Oc1ccc(CCCNc2nc(NCc3cccc4ccccc34)nc(N3CCCNCC3)n2)cc1`, the XC50 came out at 987 nM.

In turn, `N=C1N=C(N)NC2(CCCCC2)N1OCCCOc1cc(Cl)c(Cl)cc1Cl` yielded an XC50 of 3.2 nM.

For `O=C(Nc1cccc(-c2ccc(-c3nc4ccccc4[nH]3)cc2)c1)c1cnn2cccnc12`, the XC50 was 1060 nM.

The compound `O=C(/C=C/c1ccc(Cl)c(Cl)c1)N1CCC(CN2CCC(Cc3cc4ccccc4[nH]3)CC2)CC1` returned an XC50 of 630 nM.

On to `O=C(NC(NC(=S)Nc1ccc([N+](=O)[O-])cc1)C(Cl)(Cl)Cl)c1cccc(Cl)c1` (stereo not given), for which the XC50 stood at 731 nM.

The compound `Fc1cc(Cl)ccc1Nc1ccnc2cc(-c3ccc(CN4CCOCC4)o3)ccc12` returned an XC50 of 639 nM.

`O=C(NCc1ccc(C(=O)NC2CCCCCC2)cc1)c1ccc(O)c(-c2ccc(Cl)c(Cl)c2)c1`: the XC50 is 1060 nM.

Compound `Cc1[nH]cc(Br)c(=O)c1-c1ccc(Oc2ccccc2)cc1` showed an XC50 of 678 nM.

In turn, `CN1CC[C@@H](Oc2cc(NC(=O)Nc3ccc(Cl)c(C(F)(F)F)c3)ccc2Cl)C1` yielded an XC50 of 994 nM.

Compound `CCOc1ccc(C=CC(=O)Nc2ccc3nc(N4CCN(C)CC4)cc(C)c3c2)cc1OC` displayed an XC50 of 398 nM.

Take `CC(C)(CNC(=O)C1CCN(Cc2ccoc2)CC1)c1nc(-c2ccc(Cl)c(O)c2)c(-c2ccncc2)[nH]1`: the XC50 was 866 nM.

Turning to `CCOCCCNc1ncc(-c2ccsc2)c(-c2nc(C)cs2)n1`, the XC50 is 272 nM.

Consider `Cc1c(CNCCCNc2cc(=O)c3ccccc3[nH]2)sc(C(F)F)c1Br`, for which the XC50 was determined as 867 nM.

`COc1ccc(NC(=O)Nc2nc(-c3ccc(Cl)c(C)c3)cs2)cc1N1CCN(C)CC1` came in with an XC50 of 266 nM.

For the compound `Cc1cc(Nc2ccncc2)n2nc(C)c(-c3ccc(Cl)cc3)c2n1`, the XC50 amounted to 157 nM.

On to `CCn1cnc2c(N3CCCCS3(=O)=O)cc(C(=O)N[C@@H](Cc3ccccc3)[C@H](O)CNC3CCOCC3)cc21`, for which the XC50 amounted to 712 nM.

In turn, `CN(C)CCCNCCS(=O)(=O)c1cccc(Nc2ccc(-c3cccc(N(C)C)c3)cn2)c1` yielded an XC50 of 859 nM.

Compound `Oc1cc(-c2nc(C3(CNCc4ccc(Cl)cc4)CCCCC3)[nH]c2-c2ccncc2)ccc1Cl` showed an XC50 of 125 nM.

`COC(=O)c1ccc(C(=O)NCCCCN2CCC(c3ccc4c(c3OC)CCCC4)CC2)cc1-c1ccc(C(F)(F)F)cc1` displayed an XC50 of 1150 nM.

`O=C(NCC1CCC(C(=O)NCc2cccc3ccccc23)CC1)c1ccc(O)c(-c2ccc(Cl)c(Cl)c2)c1` (stereo not given) gave an XC50 of 749 nM.

For the compound `COC(=O)[C@@H](NC(=O)[C@H](Cc1ccc(OC)c(OC)c1)Nc1ccc(C#N)c2ccccc12)c1ccc(O)cc1`, the XC50 stood at 751 nM.

The compound `CC(C)COc1ccc(Cl)cc1Cc1ccc(-c2nc3ccc(Br)cc3[nH]2)o1` returned an XC50 of 1400 nM.

For the compound `CCCN1CCN(CCNC(=O)c2cccc(Nc3nccc(Nc4ccc(Oc5ccccc5)cc4)n3)c2)CC1`, the XC50 was 239 nM.

Turning to `COc1cccc(OC)c1OCCCON1C(=N)N=C(N)NC1(C)C`, the XC50 was found to be 7.28 nM.

In the case of `CCOc1ccc(Br)cc1/C=C/C(=O)Nc1ccc2c(c1)CCCN(C)C2`, the XC50 was 1050 nM.

For `O=C(Nc1ccc(C(=O)OCC2CCCN3CCCCC23)cc1)c1ccc(Cl)c(Cl)c1` (stereo not given), the XC50 is 721 nM.

Compound `CC(C)c1ccc(OCC(O)CN(CCN2CCOCC2)C(=O)Nc2ccc(Br)cc2)cc1` (stereo not given) came in with an XC50 of 717 nM.

Regarding `CCN(C)C(=O)n1ncc2c3c(N)nc(N)nc3ccc21`, the XC50 came out at 176 nM.

Compound `Nc1ncc(-c2ccc(S(=O)(=O)Nc3ccc(C(=O)N[C@@H](CCC(=O)O)C(=O)O)cc3)cc2)c(=O)[nH]1` showed an XC50 of 803 nM.

In turn, `CCN1CCC(N2CCC(C(=O)Nc3cccc(-c4cccc(Cl)c4)c3)CC2)CC1` yielded an XC50 of 1080 nM.

Compound `O=C(Nc1cccc(CN2CCCN(Cc3ccc4c(c3)OCO4)CC2)c1)c1ccc(-c2ccccc2)cc1` came in with an XC50 of 652 nM.

As for `CCN(CC)CCOc1c(Cl)cc(Cl)cc1CNCCCNc1cc(=O)c2ccccc2[nH]1`, the XC50 is 871 nM.

Take `Cc1cc(OCCCN2CCC(NS(=O)(=O)c3ccc(C(F)(F)F)cc3)CC2)c2ccccc2n1`: the XC50 came to 1220 nM.

For `O=S(=O)(c1ccc(OCc2ccc(Cl)cc2)cc1)c1cc2c(c(-c3ccc(F)cc3)c1)CCN(CC1CC1)CC2`, the XC50 came to 1120 nM.

Consider `FC(F)(F)c1ccc(CNC2CCN(CC3CCCCC3)CC2)cc1`, for which the XC50 was 933 nM.

For the compound `Nc1cccc(CNCc2cccc(-c3ccc(-c4nc5ccccc5[nH]4)cc3)c2)c1`, the XC50 is 415 nM.

In the case of `Cc1nnsc1C(=O)Nc1cccc(-c2cccc(-c3nc4cc(C(F)(F)F)ccc4[nH]3)c2)c1`, the XC50 worked out at 235 nM.

The compound `COc1cc(Nc2nccc(N3CCC(NC(=O)c4cc5ccccc5s4)C3)n2)cc(OC)c1OC` (stereo not given) returned an XC50 of 786 nM.

Regarding `O=C(/C=C/c1ccc(Cl)c(Cl)c1)NCCCCCN1CCCN(C(=S)Nc2ccc(Cl)c(Cl)c2)CC1`, the XC50 is 869 nM.

`COc1ccc(-c2cccc(NC(=O)c3ccc(Cl)cc3)c2)cc1CN1CCC(O)CC1`: the XC50 was determined as 791 nM.

For the compound `Cc1cc(N2CCOCC2)nc(Nc2ccc(NC(=O)Nc3ccc(F)cc3)cc2)n1`, the XC50 was found to be 495 nM.

Compound `CC(C)(C)c1ccc(NC(=O)c2ccc(CN3CCCN(Cc4cccc(O)c4)CC3)cc2)cc1` displayed an XC50 of 665 nM.

`N=C(NCCCCCCCCNC(=N)Nc1ccc(Cl)cc1)Nc1ccc(Cl)cc1` displayed an XC50 of 590 nM.

`CN(C1CCC(NC(=O)/C=C/c2ccccc2)CC1)C1CC2(CCN(C(=O)OC(C)(C)C)CC2)c2ccccc21` (stereo not given) displayed an XC50 of 822 nM.

Take `COc1cccc2cc(C(=O)N[C@@H](CC(C)C)C(=O)N[C@H](/C=N/NC(=O)c3ccccc3)Cc3c[nH]cn3)oc12`: the XC50 came out at 130 nM.

In turn, `CC(c1cccc(S(=O)(=O)NCc2ccc(Cl)cc2Cl)c1)N1CCC(N2CCCCC2)CC1` (stereo not given) showed an XC50 of 747 nM.

`FC(F)(F)c1cccc(Nc2nc3ccccc3nc2Nc2cccc(C(F)(F)F)c2)c1` came in with an XC50 of 137 nM.

Compound `CN(C)S(=O)(=O)c1ccc(Nc2nc(NCCC3C=NC=N3)nc3cc[nH]c(=O)c23)cc1` (stereo not given) returned an XC50 of 929 nM.

`Cc1ccccc1-c1cc(=O)c2cc(NC(=O)c3cccs3)ccc2o1` yielded an XC50 of 218 nM.

In turn, `Cc1ccc2[nH]c(C)c(Br)c(=O)c2c1` returned an XC50 of 812 nM.

Take `CC(C)c1ccc(NC(=O)N2CCc3ccc(OCCN(C(C)C)C(C)C)cc32)c(Br)c1`: the XC50 came out at 1090 nM.

In the case of `CC(C)(CNCc1ccc(Cl)c(Cl)c1)c1nc(-c2ccc(Cl)c(O)c2)c(-c2ccncc2)[nH]1`, the XC50 was determined as 757 nM.

`Cc1cc(N[C@@H](CC(C)C)C(=O)NC2CCCC2)nc(NCC2CCCCC2)n1` gave an XC50 of 858 nM.

`O=C(Nc1ccc(OC2CCN(Cc3ccsc3)C2)c(Cl)c1)c1ccc(F)cc1` (stereo not given): the XC50 is 943 nM.

With `O=C(Cn1c(CCc2cccc(F)c2F)nc(=O)c2ccccc21)N(CCCN1CCCC1)Cc1ccc(-c2ccc(C(F)(F)F)cc2)cc1`, the XC50 was 941 nM.

As to `COc1ccc(Cl)cc1NC(=O)Nc1cc(C)nc2ccccc12`, the XC50 was 287 nM.

The compound `C=CC(=O)Nc1ccc(Cl)cc1C(O)c1ccccc1` (stereo not given) registered an XC50 of 182 nM.

`CC1(C)NC(N)=NC(=N)N1OCC1CCCCC1` gave an XC50 of 3.2 nM.

The compound `O=C(CCc1nc2c(cnn2-c2ccccc2)c(=O)[nH]1)NC1CCSc2ccccc21` (stereo not given) returned an XC50 of 1060 nM.

`Cc1cccc(Nc2nccc(Nc3cccc(C(=O)NCCN4CCOCC4)c3)n2)c1` displayed an XC50 of 1420 nM.

`CCC[C@@H]([C@@H](CC(C)C)C(=O)N[C@@H](CCCNc1nccc(C(F)(F)F)n1)C(=O)Nc1nccs1)N(O)C=O`: the XC50 came to 373 nM.

On to `CCNc1cc(C(=O)N[C@@H](Cc2ccccc2)[C@H](O)CNC(C)(C)CC(C)(C)C)c(F)c(N2CCCCS2(=O)=O)c1`, for which the XC50 was found to be 1010 nM.

The compound `Nc1ccc(-c2nc3cc(-c4ccc5[nH]c(-c6ccc(N)cc6)nc5c4)ccc3[nH]2)cc1` came in with an XC50 of 129 nM.

Compound `COc1ccc(-c2nc(NC(=O)CSc3ccccc3)sc2C)cc1` had an XC50 of 764 nM.

`O=C(/C=C/c1ccc(Cl)c(Cl)c1)NCCCCCN1CCCC(C(=O)Nc2ccc(Cl)c(Cl)c2)C1` (stereo not given) registered an XC50 of 785 nM.

As to `CNCc1cccc(-c2ccc3ccnc(N)c3c2)c1`, the XC50 is 93.1 nM.

Compound `CCN(CC)CCN(Cc1ccc(-c2ccc(C(F)(F)F)cc2)cc1)C(=O)Cn1c(CCc2cc(F)ccc2F)nc(=O)c2ccccc21` displayed an XC50 of 828 nM.

`NCCNS(=O)(=O)c1ccc(-c2ccnc3[nH]c(-c4ccncc4)cc23)cc1` registered an XC50 of 840 nM.

The compound `N#Cc1cccc(C(=O)Nc2cccc(-c3cccc(CN4CCNCC4)c3)c2)c1` yielded an XC50 of 947 nM.

With `Oc1c(C(Nc2nc3ccccc3s2)c2ccc(OC(F)F)cc2)ccc2cccnc12` (stereo not given), the XC50 came to 571 nM.

As to `Cc1cccc(C)c1CNc1ccnc2ccccc12`, the XC50 amounted to 1200 nM.

As to `Cc1ccc(NC(=O)Nc2ccc(S(=O)(=O)c3ccc(NC(=O)Nc4ccc(C)c(Cl)c4)cc3)cc2)cc1Cl`, the XC50 stood at 754 nM.

As for `COc1ccccc1CCNc1nc(C)cc(NCCC(=O)Nc2ccccc2)n1`, the XC50 is 806 nM.

For `Cc1onc(-c2ccccc2)c1C(=O)Nc1nc(-c2ccccn2)nc2ccsc12`, the XC50 was 685 nM.
